Assay results published in patent US9040712B2, “Thiadiazole analogs thereof and methods for treating SMN-deficiency-related-conditions” (NOVARTIS AG, priority 2013, dated 2015).

System: SMN protein
Test: cellular SMN ELISA (SMN protein elevation)
Assay type: cell-based
Details: myoblast cell line derived from SMNdelta7 mouse model; 24 hours compound treatment; concentration range 100 pM-10 uM
Description: A cellular SMN ELISA was used to measure the effects of low molecular weight compounds on SMN protein elevation. Cells from a myoblast cell line derived from the SMNdelta7 mouse model (kind gift from Steve Burden, NYU) were seeded into a 384-well plate at a density of 3000 cells/well and treated with compounds for 24 hours. ELISA capture plates were prepared by coating 384-well plates (Immulon 4HBX) with 0.5 ug/mL of anti-SMN mAb (BD Science, Catalog number 610647) at 4° C. overnight. The plates were washed 5 times with 110 uL of PBS-Tween (0.05% Tween-20, PBST), blocked with 100 uL of 1% BSA in PBST for 2 hours and washed (5 times) with 100 uL of PBST. After 24 hours of compound treatment cells were lysed in a modified RIPA-buffer, on ice for 1 hour. 20 uL of lysate and 20 uL of 1% BSA were then added to the ELISA capture plates and incubated at 4° C. overnight. Plates were washed (5 times) with PBST and then incubated with 1:100 dilution of primary rabbit anti-SMN polyclonal antibody (Santa cruz, Catalog number SC-15320) at room temperature for 1 hour and subsequently washed (5 times) with 110 uL of PBST. This was followed by addition of 1:100 Goat anti-Rabbit IgG-HRP linked (Cell Signaling, Catalog number 7074) secondary antibody for 1 hour. Plates were then washed with PBST and incubated with 40 uL TMB substrate (Cell Signaling, Catalog number 7004L) at room temperature for 1-10 minutes with shaking. The reaction was stopped by addition of 40 uL of stop solution (Cell signaling, Catalog number 7002L) and absorption was measured at 450 nm. Data was reported as fold activation over DMSO control and EC50. ELISA assay condition: compound concentration range 100 pM-10 uM.

Which results are given for `Oc1ccc2cc(-c3nnc(N4C[C@H]5CNC[C@H]5C4)s3)c(O)cc2c1` [Example 21, 3-(5-((3aR,6aS)-Hexahydropyrrolo[3,4-c]pyrrol-2(1H)-yl)-1,3,4-thiadiazol-2-yl)naphthalene-2,7-diol]?
EC50: 323 nM; SMN Activity Fold (fold activation over DMSO control): 2.66 fold

Which EC50 does the source give for `CN(c1nnc(-c2ccc(-c3ccc(=O)n(C)c3)cc2O)s1)C1CC(C)(C)NC(C)(C)C1` [Example 17, 5-(3-Hydroxy-4-(5-(methyl(2,2,6,6-tetramethyl-piperidin-4-yl)amino)-1,3,4-thiadiazol-2-yl)phenyl)-1-methylpyridin-2(1H)-one] here?
Its EC50 is 36 nM.

And the “SMN Activity Fold (fold activation over DMSO control)” value (“SMN Activity Fold” for short)?
The value was 2.74 fold.

Which EC50 does the source give for `CN(c1nnc(-c2c(F)cc(-c3cn[nH]c3)cc2F)s1)C1CC(C)(C)NC(C)(C)C1` [Example 52, 5-(2,6-difluoro-4-(1H-pyrazol-4-yl)phenyl)-N-methyl-N-(2,2,6,6-tetramethylpiperidin-4-yl)-1,3,4-thiadiazol-2-amine] here?
The EC50 was 61 nM.

What about the “SMN Activity Fold” value of the same compound?
Its value is 3.30 fold.

For `COc1cc(-c2cnn(C)c2)ccc1-c1nnc(N2CC3(CCNCC3)C2)s1` [Example 86, 2-(2-methoxy-4-(1-methyl-1H-pyrazol-4-yl)phenyl)-5-(2,7-diazaspiro[3.5]nonan-2-yl)-1,3,4-thiadiazole], which EC50 is on record?
Its EC50 is 152 nM.

And the “SMN Activity Fold” value?
Its value is 2.33 fold.

What does the source list for `COc1cc(-c2sc(C)nc2C)ccc1-c1nnc(N(C)C2CC(C)(C)NC(C)(C)C2)s1` [Example 74, 5-(4-(2,4-dimethylthiazol-5-yl)-2-methoxyphenyl)-N-methyl-N-(2,2,6,6-tetramethylpiperidin-4-yl)-1,3,4-thiadiazol-2-amine]?
EC50: 85 nM; SMN Activity Fold (fold activation over DMSO control): 2.64 fold

Which results are given for `COc1cc(-n2cccn2)ccc1-c1nnc(N(C)C2CC(C)(C)NC(C)(C)C2)s1` [Example 1, 5-(2-methoxy-4-(1H-pyrazol-1-yl)phenyl)-N-methyl-N-(2,2,6,6-tetramethylpiperidin-4-yl)-1,3,4-thiadiazol-2-amine]?
EC50: 63 nM; SMN Activity Fold (fold activation over DMSO control): 2.45 fold

With `CN(c1nnc(-c2c(O)c3ccccc3n(C)c2=O)s1)C1CC(C)(C)NC(C)(C)C1` [Example 102, 4-hydroxy-1-methyl-3-(5-(methyl(2,2,6,6-tetramethylpiperidin-4-yl)amino)-1,3,4-thiadiazol-2-yl)quinolin-2(1H)-one] as the compound, how does the EC50 read?
The EC50 was 24 nM.

What about the “SMN Activity Fold” value of the same compound?
Its value is 2.71 fold.

Which results are given for `Cc1cc(-c2ccc(-c3nnc(N(C)C4CC(C)(C)NC(C)(C)C4)s3)c(F)c2)[nH]n1` [Example 46, 5-(2-fluoro-4-(3-methyl-1H-pyrazol-5-yl)phenyl)-N-methyl-N-(2,2,6,6-tetramethylpiperidin-4-yl)-1,3,4-thiadiazol-2-amine]?
EC50: 122 nM; SMN Activity Fold (fold activation over DMSO control): 2.32 fold

With `CNc1ccn(-c2ccc(-c3nnc(N(C)C4CC(C)(C)NC(C)(C)C4)s3)c(O)c2)n1` [Example 89, 2-(5-(methyl(2,2,6,6-tetramethylpiperidin-4-yl)amino)-1,3,4-thiadiazol-2-yl)-5-(3-(methylamino)-1H-pyrazol-1-yl)phenol] as the compound, how does the EC50 read?
Its EC50 is 106 nM.

What about the “SMN Activity Fold” value of the same compound?
The value was 2.85 fold.

`CN(c1nnc(-c2c(O)cc(-c3cn[nH]c3)c(F)c2F)s1)C1CC(C)(C)NC(C)(C)C1` [Example 91, 3,4-difluoro-2-(5-(methyl(2,2,6,6-tetramethylpiperidin-4-yl)amino)-1,3,4-thiadiazol-2-yl)-5-(1H-pyrazol-4-yl)phenol] was tested. Which “SMN Activity Fold” value did it give?
Its value is 2.67 fold.

`Cn1cc(-c2ccc(-c3nnc(N4CC5(CCNCC5)C4)s3)c(O)c2)cn1` [Example 95, 2-(5-(2,7-diazaspiro[3.5]nonan-2-yl)-1,3,4-thiadiazol-2-yl)-5-(1-methyl-1H-pyrazol-4-yl)phenol] was tested. Which EC50 did it give?
The EC50 was 53 nM.

And the “SMN Activity Fold” value?
The value was 2.44 fold.

How did the EC50 turn out when `CN(c1nnc(-c2c(O)cc(-c3cn[nH]c3)cc2F)s1)C1CC(C)(C)NC(C)(C)C1` [Example 90, 3-fluoro-2-(5-(methyl(2,2,6,6-tetramethylpiperidin-4-yl)amino)-1,3,4-thiadiazol-2-yl)-5-(1H-pyrazol-4-yl)phenol] was run?
Its EC50 is 6 nM.

What about the “SMN Activity Fold” value of the same compound?
Its value is 2.57 fold.

What does the source list for `COc1cc(-c2ccc(-c3nnc(N(C)C4CC(C)(C)NC(C)(C)C4)s3)c(OC)c2)ccn1` [Example 77, 5-(2-methoxy-4-(2-methoxypyridin-4-yl)phenyl)-N-methyl-N-(2,2,6,6-tetramethyl-piperidin-4-yl)-1,3,4-thiadiazol-2-amine]?
EC50: 52 nM; SMN Activity Fold (fold activation over DMSO control): 3.33 fold

How did the EC50 turn out when `CN(c1nnc(-c2c(O)cc(-c3ccn(C)c(=O)c3)cc2OC(F)(F)F)s1)C1CC(C)(C)NC(C)(C)C1` [Example 60, 4-(3-hydroxy-4-(5-(methyl(2,2,6,6-tetra-methylpiperidin-4-yl)amino)-1,3,4-thiadiazol-2-yl)-5-(trifluoromethoxy)phenyl)-1-methylpyridin-2(1H)-one] was run?
The EC50 was 53 nM.

And the “SMN Activity Fold” value?
The value was 2.69 fold.

Which EC50 does the source give for `Oc1cc(-n2cccn2)ccc1-c1nnc(N2CCNCC2)s1` [Example 30, 2-(5-(piperazin-1-yl)-1,3,4-thiadiazol-2-yl)-5-(1H-pyrazol-1-yl)phenol] here?
Its EC50 is 6560 nM.

And the “SMN Activity Fold” value?
The value was 1.98 fold.

Which results are given for `COc1cc(-c2cn[nH]c2)ccc1-c1nnc(N(C)C2CC(C)(C)NC(C)(C)C2)s1` [Example 7, 5-(2-Methoxy-4-(1H-pyrazol-4-yl)phenyl)-N-methyl-N-(2,2,6,6-tetramethylpiperidin-4-yl)-1,3,4-thiadiazol-2-amine]?
EC50: 38 nM; SMN Activity Fold (fold activation over DMSO control): 2.86 fold

With `COc1ccc(-c2ccc(-c3nnc(N(C)C4CC(C)(C)NC(C)(C)C4)s3)c(Cl)c2)cn1` [Example 44, 5-(2-chloro-4-(6-methoxypyridin-3-yl)phenyl)-N-methyl-N-(2,2,6,6-tetramethylpiperidin-4-yl)-1,3,4-thiadiazol-2-amine] as the compound, how does the EC50 read?
The EC50 was 4920 nM.

What about the “SMN Activity Fold” value of the same compound?
The value was 2.26 fold.

What does the source list for `COc1nc2ccccc2cc1-c1nnc(N(C)C2CC(C)(C)NC(C)(C)C2)s1` [Example 3, 5-(2-Methoxyquinolin-3-yl)-N-methyl-N-(2,2,6,6-tetramethylpiperidin-4-yl)-1,3,4-thiadiazol-2-amine]?
EC50: 337 nM; SMN Activity Fold (fold activation over DMSO control): 2.67 fold

Which results are given for `CN(c1nnc(-c2cc(F)c(-c3cn[nH]c3)cc2F)s1)C1CC(C)(C)NC(C)(C)C1` [Example 50, 5-(2,5-difluoro-4-(1H-pyrazol-4-yl)phenyl)-N-methyl-N-(2,2,6,6-tetramethylpiperidin-4-yl)-1,3,4-thiadiazol-2-amine]?
EC50: 20 nM; SMN Activity Fold (fold activation over DMSO control): 3.07 fold
